Experimental data as given in ChEMBL document CHEMBL1131027, “Enhancement of oral absorption in selective 5-HT1D receptor agonists: fluorinated 3-[3-(piperidin-1-yl)propyl]indoles” (J Med Chem, 1998).

Columns and labels:
Rattus norvegicus [1] = test: Concentration of compound in rat plasma obtained from hepatic portal vein(hpv) blood samples following peroral administration at 3 mg/kg.; type: functional, organism-based; set-up: dose 3 mg/kg
[2] = biological target: T1, 5-hydroxytryptamine receptor 1D (Homo sapiens, UniProt P28221); test: Agonist induced [35S]GTP-gamma-S, binding in CHO cells expressing 5-HT 1d receptor; type: functional, cell-based
T1 sequence (P28221 whole entry): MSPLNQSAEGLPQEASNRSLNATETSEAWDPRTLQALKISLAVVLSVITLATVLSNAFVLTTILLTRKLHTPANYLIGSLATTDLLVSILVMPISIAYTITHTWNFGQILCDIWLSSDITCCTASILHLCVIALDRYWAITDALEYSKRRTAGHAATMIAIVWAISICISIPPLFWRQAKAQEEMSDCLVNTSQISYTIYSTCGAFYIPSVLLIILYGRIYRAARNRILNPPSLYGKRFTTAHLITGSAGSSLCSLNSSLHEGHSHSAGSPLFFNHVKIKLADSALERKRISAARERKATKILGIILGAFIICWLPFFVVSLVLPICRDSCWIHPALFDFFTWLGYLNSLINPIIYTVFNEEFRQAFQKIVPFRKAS

[3] = The ionization constant (pKa) for the compound measured potentiometrically
[4] = biological target: Serotonin 1 receptors; 5-HT1B & 5-HT1D (Homo sapiens) (UniProt P28222+P28221); test: Relative binding to serotonin 5-HT1D and 5-HT1B receptors; type: protein assay
[5] = biological target: T1, 5-hydroxytryptamine receptor 1D; test: Percent efficacy relative to 5-HT treatment of CHO cells expressing 5-HT 1d receptor; type: functional, cell-based
Rattus norvegicus [6] = test: Concentration of compound in rat plasma obtained from cardiac (systemic) blood samples following peroral administration at 3 mg/kg.; type: functional, organism-based; set-up: dose 3 mg/kg
[7] = biological target: T1, 5-hydroxytryptamine receptor 1D; test: Displacement of [3H]5-HT from human 5-hydroxytryptamine 1D receptor expressed in CHO cells; type: cell-based

Row | EC50 [2] [nM] | pKa [3] | Selectivity [4] | Efficacy [5] [%] | IC50 [7] [nM] | Structure (SMILES) | Concentration (Rattus norvegicus [1]) [ng/mL] | Concentration (Rattus norvegicus [6]) [ng/mL]
1 | 0.6 | 9.7 | 57 | 62 | 0.35 | c1ccc(CC2CCN(CCCc3c[nH]c4ccc(-n5cnnc5)cc34)CC2)cc1 | 25 | < 2
2 | 5.1 |  | 30 | 71 | 0.75 | Fc1cccc(CCC2(F)CCN(CCCc3c[nH]c4ccc(-n5cnnc5)cc34)CC2)c1 |  | 
3 |  |  | 206 | 104 |  | OC[C@H](NC1CCN(CCCc2c[nH]c3ccc(-n4cnnc4)cc23)CC1)c1ccc(F)cc1 | < 2 | < 2
4 | 4.4 |  | 324 | 98 | 3.7 | Fc1cccc(CCN2CCN(CC(F)Cc3c[nH]c4ccc(-n5cnnc5)cc34)CC2)c1 (stereo unspecified) |  | 
5 | 0.5 | 8.8 | 16 | 58 | 1 | FC1(Cc2ccccc2)CCN(CCCc2c[nH]c3ccc(-n4cnnc4)cc23)CC1 | 570 | 52
6 | 11 | 8.7 | 65 | 61 | 0.95 | FC(Cc1c[nH]c2ccc(-n3cnnc3)cc12)CN1CCC(Cc2ccccc2)CC1 (stereo unspecified) | 781 | 196
7 |  |  | 6 |  | 2.2 | CN(Cc1ccccc1)[C@H]1CCN(CCCc2c[nH]c3ccc(-n4cnnc4)cc23)C[C@H]1F |  | 
8 | 18 |  | 230 | 104 | 5.4 | CN(Cc1ccccc1)C1CCN(CC(F)Cc2c[nH]c3ccc(-n4cnnc4)cc23)CC1 (stereo unspecified) | 57 | 2
9 |  | 8.2 | 40 |  |  | c1ccc(CN2CCN(CCCc3c[nH]c4ccc(-n5cnnc5)cc34)CC2)cc1 | 178 | 42
10 |  | 8 | 18 |  | 13 | CN(Cc1ccccc1)[C@@H]1CCN(CCCc2c[nH]c3ccc(-n4cnnc4)cc23)C[C@@H]1F | 216 | 2
11 |  |  | 66 | 94 |  | CN(Cc1ccccc1)C1CCN(CCCc2c[nH]c3ccc(-n4cnnc4)cc23)CC1 | 4 | < 1
12 | 1.7 |  | 225 | 95 | 1.4 | OC[C@H](NC1CCN(CC(F)Cc2c[nH]c3ccc(-n4cnnc4)cc23)CC1)c1ccc(F)cc1 (stereo partly specified) | 5 | < 1
13 |  |  | 125 |  |  | Fc1cccc(CCN2CCN(CCCc3c[nH]c4ccc(-n5cnnc5)cc34)CC2)c1 |  | 
